Data taken from US20250382261A1 (The Broad Institute, Inc., priority 2021, published 2025).

Assays:
in vivo = details: female, C57BL/6, mouse, plasma, iv, 1 mg/kg
Method: (§4) Plasma samples were taken from 3 mice per time point (5, 15, 30 min; 1, 2, 4, 6 and 8 h post-dose). An aliquot of 2 μL sample was protein precipitated with 60 μL methanol, the mixture was vortex-mixed well and centrifuged at 13000 rpm for 10 min at 4° C. 2 μL supernatant was injected for LC-MS/MS analysis. The mean plasma concentration and the standard deviation from all 3 animals within each time point were calculated. PK parameters were calculated with a non-compartmental analysis. The mean plasma concentrations from all 3 mice at each time point were used in the calculations.

in vitro = details: human
[1] = system: A. baumannii (ATCC 17978); test: Checkerboard potentiation assay with novobiocin; format: cell-based; details: with novobiocin
Method: (§1) Bacterial strains and culture conditions. The following bacterial strains were used within this study; A. baumannii (ATCC 17978), K. pneumoniae (ATCC 43816), K. pneumoniae (ATCC 43816, expressing pGDP2:mcr-1), P. aeruginosa (PA01). Bacterial growth was in cation-adjusted Mueller-Hinton broth (MHB) at 37° C., and inoculum was prepared according to CLSI protocol (CLSI 2015).
(§2) Potentiation assays. Checkerboard analyses were conducted with each drug serially diluted at eight concentrations to create an 8×8 matrix. At least two biological replicates were done for each combination, and the means were used for FIC calculation. The FIC for each drug was calculated by dividing the concentration of the drug in the presence of codrug in a combination for a well showing <10% growth by the MIC for that drug alone. The FIC index (FICI) is the sum of the two FICs, with an FIC index≤0.5 deemed synergistic.

human red blood cells = test: Hemolysis in human blood; details: 100 μM, 45 min, 37° C.
[2] = HEK293 cytotoxicity assay (Cell Titer Glo); format: cell-based; details: human, HEK293 cells (ATCC CRL 1573), 48 h treatment, Cell Titer Glo; called AC50 in the text; read-out: HEK293T Cytotoxicity (IC50, μg/mL)
Method: Cytotoxicity Assays. HEK293 (ATCC CRL 1573) cells were left to adhere for 18 h at 7.5×10^3 cells per well in DMEM containing 10% FBS and 2 mM L-glutamine. Compound was added directly into the well. After 48 h of treatment Promega Cell Titer Glo 2.0® was added, shaken for 10 min, and luminescence read (Biotek Neo). AC50 values were calculated using a four-parameter logistic curve in GraphPad Prism 9.
Focusing on only the analogs that retained synergistic activity with novobiocin (FICI≤0.5), half-maximal activity (AC50) values were calculated against HEK293 cells using a CellTiter-Glo® based assay to approximate cell viability. […] Specifically, the FICI value for both P35 and P36 was 0.094 against A. baumannii, while their AC50 values were 235 μg/mL and 200 μg/mL, respectively.

A. baumannii ATCC 17978 [3] = test: Systemic A. baumannii murine infection model; format: in vivo, mouse
Method: Mouse infection models. Animal experiments were conducted according to guidelines set by the Canadian Council on Animal Care using protocols approved by the Animal Review Ethics Board at McMaster University under Animal Use Protocol #20-12-43. Before infection, mice were relocated at random from a housing cage to treatment or control cages. No animals were excluded from analyses, and blinding was considered unnecessary. Seven- to nine-week-old female C57BL/6 mice (Charles River) were infected intraperitoneally with ˜2×10^6 CFU of A. baumannii ATCC 17978, with 5% porcine mucin (Sigma-Aldrich). Infections were allowed to establish for 2 h, and treatments were administered intraperitoneally. For the survival study, the clinical endpoint was determined using a five-point body condition score analyzing weight loss, decrease in body temperature, respiratory distress, hampered mobility and hunched posture. Experimental endpoint was defined as five days post-infection for mice not reaching clinical endpoint. For CFU/mL enumeration, animals were infected as described above and euthanized 6 h post-infection, and blood was collected into sterile 2 ml heparinized tubes (BD Scientific) serially diluted in PBS and plated onto solid LB. Plates were incubated overnight at 37° C., and colonies were quantified to determine bacterial load.
This was directly compared to the activity of P35 and P36 in this model (all administered at 10 mg/kg) in combination with novobiocin (50 mg/kg).
For this experiment the same A. baumannii infection model was used, however, endpoint was defined as 6 h post-infection, at which point blood was collected for CFU/mL enumeration (FIG. 2b).

LPS from E. coli EH100 = test: BODIPY-Cadaverine LPS displacement assay; format: binding; details: BODIPY-cadaverine displacement from E. coli EH100 LPS
Method: BODIPY-Cadaverine LPS displacement assay. The BODIPY-cadaverine LPS displacement assay was performed as previously described (Wood et al. 2004. Combinatorial Chemistry & High Throughput Screening, 7: 239-49; Klobucar et al. 2021. ACS Chemical Biology, 16: 929-42). A solution of BODIPY-cadaverine (2.25 μM) and LPS from E. coli EH100 (5.25 μM) in Tris-HCl buffer (50 mM, pH 7.4) was prepared. 0.5 μL of compound and 49.5 μL of the Tris-HCl buffer with BODIPY-cadaverine and LPS solution were added to a Corning nonbinding surface black 384-well polystyrene plate. Fluorescence intensity was measured immediately with an excitation wavelength of 580 nm and an emission wavelength of 620 nm. EC50 values were calculated using a three-parameter logistic curve in GraphPad Prism 9.

P. aeruginosa (PA01) = test: Checkerboard potentiation assay with novobiocin; format: cell-based
Method: as §1, §2
(§3) To probe the spectrum of activity of the present analogs beyond A. baumannii, their interactions with novobiocin were assessed against the high-priority Gram-negative pathogens Klebsiella pneumoniae and P. aeruginosa (FIG. 5).

[4] = system: K. pneumoniae (ATCC 43816); test: Checkerboard potentiation assay with novobiocin; format: cell-based
Method: as §1, §2, §3

HepG2 cells = details: human, 72 h
A. baumannii ATCC 17978 [5] = details: murine systemic A. baumannii infection, Stokes et al. 2017; cited from earlier work
[6] = Pharmacokinetic analysis after single intravenous dose
Method: as §4

N=C(N)c1ccc(OCCCCCOc2ccc(C(=N)N)cc2)cc1 [Pentamidine, pentamidine, reference compound]
AUC(0-inf) (in vivo): 0.119 µg·h/mL | AUC(0-t) (in vivo): 0.116 µg·h/mL | C0 (in vivo): 1.26 µg/mL | MRT inf (in vivo): 24.7 min | MRT last (in vivo): 13.7 min | Vd (in vivo): 3.45 L/kg | clearance (in vivo): 8.4 L/h/kg | half-life (in vivo): 118 min | AC50 at 72 h (in vitro; HepG2 viability / cell cycle arrest AC50, HepG2, 72 h incubation): < 0.293 µM | AC50 at 72 h (in vitro; Nuclear Size AC50 (μM)): 2.28 µM | AC50 at 72 h (in vitro; Phospholipidosis AC50 (μM)): > 150 µM | FICI AB [1]: 0.25 | Hemolysis of human blood (human red blood cells): Neither compound was hemolytic | IC50 at 48 h [2]: 73 µg/mL | Reduction in blood CFU/mL in combination with novobiocin (A. baumannii ATCC 17978 [3]; 10 mg/kg + 50 mg/kg novobiocin, 6 h post-infection): 2.08 log10 | Animals rescued in combination with novobiocin (A. baumannii ATCC 17978 [3]; 10 mg/kg analog + 50 mg/kg novobiocin i.p. 2 h post-infection, endpoint 5 days): 100% | LPS Displacement (EC50, μg/mL) (LPS from E. coli EH100): 231 µg/mL | FICI PA (P. aeruginosa (PA01)): 0.75 | FICI KP [4]: 0.375 | AC50 (HepG2 cells): > 150 µM | Animals rescued in combination with novobiocin (previous work) (A. baumannii ATCC 17978 [5]): 100% | Adverse effects after single intravenous dose ([6]; female C57BL/6 mice, 1 mg/kg i.v. in water): no adverse effects | AUCExtra (%) ([6]; mouse, 1 mg/kg IV): 2.76% | AUMCExtra (%) ([6]; mouse, 1 mg/kg IV): 45.8% | Tlast ([6]; mouse, 1 mg/kg IV): 4.00 h
